The values that follow come from patent US3956333A, “1(Or 3)-perfluoroalkyl-3,4-dihydro-2(1H)-isoquinolinecarbonitriles” (Sterling Drug Inc., priority 1975, dated 1976).

Assay [1] has as its system platelet aggregate (thrombus). In words: In vivo inhibition of platelet aggregation, modified extracorporeal shunt technique (thrombus deposit weight). Also noted: species or system New Zealand rabbits. The settings on record: single dose, 3 hours after medication; for % Inhibition of platelet aggregation (in vivo): P < 0.0005; for x Deposit Weight ± s.d.: mean. An excerpt: The antithrombotic or platelet aggregation inhibitory effect of the compounds of formulas I and II was further determined by a modified extracorporeal shunt technique in rabbits. Rowntree and Shinoya [J. Exp. Med. 46, 7 (1927)] described a method of extracorporeal circulation for the observation of thrombus formation. Downie et al. [Circulation Res. 12, 441 (1963)] modified this technique in order to study the effects of various chemicals upon the platelet aggregates formed in such a system. The following procedure, a further modification of said technique, was used to determine the antithrombotic activity of the compounds of the invention.
New Zealand rabbits weighing 1.5 to 3.0 kg. each were used for these studies. All animals were dosed orally by stomach tube with the test compound at a given time, e.g., 3, 8, 12, 24, etc. hours, prior to testing the blood samples. Control animals (from 3 to 5 in number for each dose level of compound) were given the vehicle used for solubilizing the compounds tested. All animals were anesthetized with sodium pentobarbital (Pentobrocanal) intravenously, 25-32 mg./kg., and secured to a dissecting board. The right femoral artery was cannulated and connected to a Statham pressure transducer (P 23AC) for continuously measuring arterial blood pressure which was recorded by means of a Grass (Model 7) polygraph.
A longitudinal incision was made in the midcervical region. The jugular vein and the carotid artery on one side were isolated and cannulated with appropriate size catheters filled with saline solution, which were in turn connected via Y-shaped polypropylene connectors establishing the shunt.
The components of the shunt were thoroughly siliconized except for the Y-connector on the arterial side. This connector is weighed prior to running the experiment. A blood sample was withdrawn from the femoral artery to provide a control platelet count. The animal was allowed 10-12 minutes to attain a relatively stable blood pressure level after which the shunt was opened and the blood permitted to flow. The time from the first appearance of blood, in the arterial catheter until its re-entry into the body, via the venous catheter, was measured and recorded, as flow time, which was used to determine the initial rate of flow.
The shunt remained open for a period of twenty minutes. One minute before the end, the femoral catheter was removed from the transducer and a second blood sample was taken. Duplicate platelet counts were made for each sample of blood. The shunt was removed from the animal by pulling out both catheters, arterial and venous, arterial first. The Y-connectors were washed with 10 cc. of saline solution. The arterial Y-connector was separated and dried in an oven overnight at 40°C., then reweighed. The initial weight of the connector was subtracted from the final weight, and the difference is considered to be the mass of the platelet aggregate (thrombus).
(single dose medication), the blood samples having been tested three hours after medication: […]

Assay [2] relates to Platelet aggregation induced by ADP. The settings on record: Oryctolagus cuniculus, read-out: % Inhibition of platelet aggregation induced by ADP.
Assay [3] relates to Platelet aggregation induced by collagen. To be noted: Oryctolagus cuniculus, read-out: % Inhibition of platelet aggregation induced by collagen.
Assay [4] relates to Staphylococcus aureus. The assay can be described thus: Antibacterial activity, standard serial dilution technique (MIC). To be noted: read-out: minimal (bacteriostatic) inhibitory concentration (MIC). It counts as cell-based. The text has this:
The antibacterial activities for the compounds of formulas I and II and the compound of formula V where R is pentafluoroethyl were established using standard serial dilution techniques as described by Goss and Cimijotti, Applied Microbiology 16, 1414 (1968).

Converted amounts (≈) assume the structure as drawn.

As a reminder, the inhibition is the change of the read-out against control, counted positive when it falls.

Take `Cl.NC(=NO)N1CCc2ccccc2C1C(F)(F)C(F)(F)F` (stereo not shown) [Example 1E]: the “% Inhibition of platelet aggregation (in vivo)” value was 17% in assay [1] (10 mg/kg oral), 38% in assay [1] (25 mg/kg oral) and 41% in assay [1] (50 mg/kg oral). In addition, the figures for the “x Deposit Weight ± s.d.” value in assay [1] (10 mg/kg oral), in assay [1] (25 mg/kg oral) and in assay [1] (50 mg/kg oral) were 1.54 ± 0.09, 1.16 ± 0.05 and 1.08 ± 0.08, respectively. The inhibition at 3000 µM in assay [2] turned out to be 74.2%. In addition, in assay [3], the inhibition at 100 µM amounted to 24.3%.
Turning to `NC(=NO)N1CCc2ccccc2C1C(F)(F)C(F)(F)C(F)(F)F` (stereo not shown) [Example 2E], the inhibition at 1000 µM in assay [2] was 8.3%; in assay [3], 94.2%.
In the case of `NC(=NO)N1Cc2ccccc2CC1C(F)(F)F` (stereo not shown) [Example 3E], the inhibition at 3000 µM in assay [2] turned out to be 64.4%. Also, the inhibition at 300 µM in assay [3] was 67.4%.
Regarding `FC(F)(F)C(F)(F)C1NCCc2ccccc21` (stereo not shown) [1,2,3,4-tetrahydro-1-(pentafluoroethyl)isoquinoline], the MIC in assay [4] was roughly 500 µg/mL (≈ 1990 µM).
